Laboratory results from US20090118286A1, “Heterobicyclic Acrylamides” (Bayer Cropscience AG, priority 2005, published 2009).
Read-outs that look alike come from different tables or passages of the source.

Tests used:
[1] = log P determination by HPLC (EEC Directive 79/831 Annex V.A8, gradient method); assay type: physicochemical; conditions: HPLC, gradient method, acetonitrile/0.1% strength aqueous phosphoric acid or formic acid
[2] = tested on: larvae of the mustard beetle (Phaedon cochleariae); assay: Phaedon test, PHAECO spray treatment; assay type: in vivo; conditions: foliar, 168 h, 500 g a. i./ha, spray treatment of Chinese cabbage leaf discs, 7 d, read-out: % 7 d (effect in %, beetle larvae killed)
Experimental: (§1) [table] To produce a suitable preparation of active compound, 1 part by weight of active compound is mixed with the stated amounts of solvents and emulsifier, and the concentrate is diluted with emulsifier-containing water to the desired concentration. Discs of Chinese cabbage leaves (Brassica pekinensis) are sprayed with a preparation of active compound of the desired concentration and, after drying, populated with larvae of the mustard beetle (Phaedon cochleariae). After the desired period of time, the effect in % is determined. 100% means that all beetle larvae have been killed; 0% means that none of the beetle larvae have been killed.

[3] = tested on: caterpillars of the army worm (Spodoptera frugiperda); assay: Spodoptera frugiperda test, SPODFR spray treatment; assay type: in vivo; conditions: foliar, 168 h, 500 g a. i./ha, spray treatment of maize leaf discs, 7 d, read-out: % 7 d (effect in %, caterpillars killed)
Experimental: as §1, with “maize” for “Chinese cabbage”, “(Zea mays)” for “(Brassica pekinensis)”, “caterpillars” for “larvae”, “army worm (Spodoptera frugiperda).” for “mustard beetle (Phaedon cochleariae).”, “caterpillars” for “beetle larvae”

[4] = tested on: Sphaerotheca fuliginea; assay: Sphaerotheca test (cucumber)/protective; assay type: in vivo; conditions: application rate 500 ppm, protective, evaluation 7 days after inoculation
Experimental: [table] To produce a suitable preparation of active compound, 1 part by weight of active compound is mixed with the stated amounts of solvent and emulsifier, and the concentrate is diluted with water to the desired concentration. To test for protective activity, young cucumber plants are sprayed with the preparation of active compound at the stated application rate. 1 day after the treatment, the plants are inoculated with a spore suspension of Sphaerotheca fuliginea. The plants are then placed in a greenhouse at 70% relative atmospheric humidity and a temperature of 23° C. Evaluation is carried out 7 days after the inoculation. 0% means an efficacy which corresponds to that of the control, whereas an efficacy of 100% means that no infection is observed.

[5] = tested on: Botrytis cinerea; assay: Botrytis test (bean)/protective; assay type: in vivo; conditions: application rate 500 ppm, protective, evaluation 2 days after inoculation
Experimental: [table] To produce a suitable preparation of active compound, 1 part by weight of active compound is mixed with the stated amounts of solvents and emulsifier, and the concentrate is diluted with water to the desired concentration. To test for protective activity, young plants are sprayed with the preparation of active compound at the stated application rate. After the spray coating has dried on, 2 small pieces of agar colonized by Botrytis cinerea are placed onto each leaf. The inoculated plants are placed in a dark chamber at about 20° C. and 100% relative atmospheric humidity. 2 days after the inoculation, the size of the infected areas on the leaves is evaluated. 0% means an efficacy which corresponds to that of the control, whereas an efficacy of 100% means that no infection is observed.

Row | chromatographic logP ([1]; read-out: Physical data (logP)) | Compound | pest or weed control at 500 g/ha [2] [%] | pest or weed control at 500 g/ha [3] [%] | also measured
1 |  | CC(NC(=O)/C=C/c1c(-c2ccc(Cl)c(Cl)c2)nc2sc(C(F)(F)F)nn12)c1ccccn1 (stereo not drawn) [Example 0793] | 100 |  | chromatographic logP ([1]; read-out: Physical data: logP): 3.26
2 |  | COc1ccc(-c2nc3sc(C(F)(F)F)nn3c2/C=C/C(=O)NC(C)(C)C)cc1OC [Example 0654] | 100 |  | chromatographic logP ([1]; read-out: Physical data: logP): 3.37
3 |  | CC(NC(=O)/C=C/c1c(-c2cccc(C(F)(F)F)c2)nc2sc(C(F)(F)F)nn12)c1ccccn1 (stereo not drawn) [Example 0416] | 100 |  | chromatographic logP ([1]; read-out: Physical data: log P): 3.03
4 |  | O=C(/C=C/c1c(-c2ccc(F)cc2Cl)nc2sc(C(F)(F)F)nn12)NC1CC1 [Example 0585] | 100 | 100 | chromatographic logP ([1]; read-out: Physical data: log P): 3.03
5 |  | CC(NC(=O)/C=C/c1c(-c2cc(Cl)ccc2Cl)nc2sc(C(F)(F)F)nn12)C(F)(F)F (stereo not drawn) [Example 0729] | 100 |  | 
6 |  | CC(C)NC(=O)/C=C/c1c(-c2ccccc2Cl)nc2sc(C(F)(F)Cl)nn12 [Example 0724] | 100 | 100 | chromatographic logP ([1]; read-out: Physical data: logP): 3.36
7 | 3.26 | O=C(/C=C/c1c(-c2ccccc2Cl)nc2sc(C(F)(F)F)nn12)NCC1CC1 [Example 0166] | 100 |  | 
8 |  | CCN(CC)C(=O)/C=C/c1c(-c2ccccc2)nc2sc(C(F)(F)F)nn12 [Example 0912] |  |  | Efficacy in % [4]: 95%; Efficacy in % [5]: 93%
9 |  | CC(NC(=O)/C=C/c1c(-c2ccc(F)cc2Cl)nc2sc(C(F)(F)F)nn12)C(F)(F)F (stereo not drawn) [Example 0598] | 100 | 100 | chromatographic logP ([1]; read-out: Physical data: log P): 3.79
10 |  | CCCC(C)NC(=O)/C=C/c1c(-c2ccccc2Cl)nc2sc(C(F)(F)Cl)nn12 (stereo not drawn) [Example 0734] | 100 | 100 | chromatographic logP ([1]; read-out: Physical data: logP): 4.06
11 | 3.13 | CC(C)NC(=O)/C=C/c1c(-c2ccccc2Cl)nc2sc(C(F)(F)F)nn12 [Example 0148] | 83 | 100 | 
12 |  | CC(C)CN(C)C(=O)/C=C/c1c(-c2ccccc2)nc2sc(C(F)(F)F)nn12 [Example 0913] |  |  | Efficacy in % [4]: 90%
13 | 2.88 | O=C(/C=C/c1c(-c2ccccc2Cl)nc2sc(C(F)(F)F)nn12)NC1CC1 [Example 0152] | 100 |  | 
14 | 3.95 | C=CCN(C)C(=O)/C=C/c1c(-c2ccc(Cl)cc2)nc2sc(C(F)(F)F)nn12 [Example 0067] |  |  | Efficacy in % [4]: 90%
15 | 3.31 | O=C(/C=C/c1c(-c2cccc(Cl)c2)nc2sc(C(F)(F)F)nn12)N1CCOCC1 [Example 0142] | 100 |  | 
16 |  | O=C(/C=C/c1c(-c2ccccc2Cl)nc2sc(C(F)(F)Cl)nn12)NC1CC1 [Example 0728] | 100 | 100 | chromatographic logP ([1]; read-out: Physical data: logP): 3.07
17 | 2.39 | CC(NC(=O)/C=C/c1c(-c2ccccc2Cl)nc2sc(C(F)(F)F)nn12)c1ccccn1 (stereo not drawn) [Example 0203] | 83 | 100 | 
